# Data as given in US20140342065A1 (priority 2012, published 2014).
# Where two headings read alike, the source gives them in different places.
# Legend:
# [1] = system: strawberries; micro-organisms
# Method: Fruits were treated without or with gas with each gas at 40 ppm. N=12, Differences between control and treated groups (P<0.05-P<0.005).
# [2] = system: Banana, Tomato and slices of avocado; yeast and/or bacteria
# Description: Representative samples include fruits (Banana), and vegetables (Tomato) and slices of avocado. Experiments were repeated at least four times and each food category included a minimum of six items in each group. The containers were made of gas impermeable Plexiglas that snugly fitted onto the container rim. Fruits were placed on regular kitchen towels that covered the bottom of the containers. Control and experimental group (Exp) of fruits were placed in separate containers. The amount of H2S—H2 gas within the Exp containers varied from 5-15 ppm during the course of exposure. When the level dropped below 5 ppm, the H2 gas was substituted. Experiment was carried out at room temperature for the durations shown. […] Growth of bacteria and yeast was checked by taking samples of food and streaking them over agar. Samples from each fruit were diluted in phosphate buffered saline, pH 7.4. From each sample, 20 microliters was streaked on agar plates and plates were maintained either at room temperature or at 37° C.
# mice = conditions: cited from earlier work
# bacteria and yeast = test: Agar plates stored with H2S gas 40 ppm (FIG. 11, 104); format: cell-based; conditions: H2S 40 ppm
# Description: Representative samples of foods shown include fruits, and vegetables. […] Control foods were stored in closed containers. The containers were made of aluminum with a plastic lid that snugly fitted onto the container rim. […] The inlet and outlet valves were then closed. Using a H2S gas detector capable of detecting 1 to 500 ppm of H2S, no H2S was detected outside the chamber. […] There is small change in color, consistency, and of the same food group and there is no evidence of growth of yeast in the H2S gas-treated group. Growth of bacteria and yeast was checked by taking samples of food and streaking them over agar. […] Strawberry 80. […] This growth was quite evident on day 5 (arrows, 81). The fruit also lost its consistency and is discolored. […] Banana, 86. Growth of yeast is seen by day 8 in the control group. The fruit also lost its consistency and is discolored. […] A slice of banana 99. […] The fruit also lost its consistency and is discolored. […] Pistachio 101. […] Green bananas 102. Green bananas in each group were used in this experiment. The control bananas ripened, developed a yellow color that still maintained some of their green color on day 8. Tomatoes 103. Green tomatoes in each group were used in this experiment. […] Samples from each fruit were diluted in phosphate buffered saline, pH 7.4. […]
# humans = conditions: cited from earlier work
# [3] = 0.01-0.1 mol/liter solutions at 18° C.; cited from earlier work
# [4] = in water; cited from earlier work
# [5] = in water; cited from earlier work; remark: listed apart in the source
# [6] = system: Strawberry, Blackberry, Raspberry, Banana, Tomato and Avocado; mold and/or bacteria
# Description: Representative samples include but are not limited to (Strawberry, Blackberry, Raspberry, Banana, Tomato and Avocado). Experiments were repeated at least four times and each food category included a minimum of six items in each group. The containers were made of gas impermeable plexi-glass that snugly fitted onto the container rim. Fruits were placed on regular kitchen towels that covered the bottom of the container. Control and experimental group (Exp) of fruits were placed in separate containers. […] When the level dropped below 5 ppm, the H2 gas was substituted. Experiment was carried out at room temperature for the durations shown.
structure (smiles),measurement,setting,value
[He] [Helium],growth of micro-organisms,[1],retarded but did not prevent growth of micro-organisms
same,effect on ripening and oxidation,[1]; relative to Hydrogen,greater than Hydrogen
same,prevention of food spoilage,[1]; relative to Hydrogen,comparable with Hydrogen
same,food spoilage,"[2]; closed environment, room temperature",prevents food spoilage
S [Hydrogen Sulfide],health consequences after the procedure,"mice; 81 ppm H2S, 6 hours",no negative health consequences
same,blood pressure,mice; mice treated with Hydrogen Sulfide (81 ppm),did not significantly decrease
same,side effects,mice; range of 80 ppm,no side effects
same,time without growth following initiation of cultures,bacteria and yeast,up to 2 months
same,lethal concentration for 50% of humans (LC50),humans; 5 minute exposure,800 ppm
same,concentration at which the olfactory nerve is paralyzed,humans; after a few inhalations,100-150 ppm
same,concentration causing immediate collapse with loss of breathing,humans; even after a single breath,over 1000 ppm
same,borderline concentration for eye irritation,humans; in vivo,10-20 ppm
same,"concentration causing strong stimulation of the central nervous system and rapid breathing, leading to loss of breathing",humans; in vivo,530-1000 ppm
same,concentration leading to eye damage,humans; in vivo,50-100 ppm
same,concentration leading to pulmonary edema with the possibility of death,humans; in vivo,320-530 ppm
same,concentration with an exposure limit of 8 hours per day,humans; in vivo,< 10 ppm
same,"recognition threshold, concentration at which 50% of humans can detect the odor",humans; in vivo,0.0047 ppm
same,threshold level at which the oxidative (detoxifying) enzymes get overwhelmed,humans; in vivo,300-350 ppm
same,pKa (giving the hydro-sulfide ion HS^−),[3],6.9
[HH] [Hydrogen],"reaction rate constant k, .OH + H2",[4],4.2e+07 M⁻¹ s⁻¹
same,food spoilage,[2],prevents food spoilage
same,"reaction rate constant k, .O^− + H2",[5],8e+07 M⁻¹ s⁻¹
same,food spoilage and growth of mold and/or bacteria,"[6]; H2 5-45 ppm, closed container, room temperature",prevents food spoilage and retards but does not inhibit growth of mold and/or bacteria
same,day on which growth of mold is evident,"[6]; Strawberry, Raspberry, Blackberry, control day 3, less severe than control",4 days
same,discoloration and yeast growth on avocado slice,[6]; day 4,only moderate surface discoloration and no evidence of growth of yeast
same,ripening and surface discoloration of un-ripened bananas,"[6]; day 4, versus control",less ripening and discoloration
same,ripening of un-ripened tomato,"[6]; day 4, versus control",less ripening
